US11667652B2, “MCL1 inhibitors” (Gilead Sciences, Inc., priority 2019, dated 2023)
pEC50, pIC50: −log10 of the molar value. Where two headings read alike, the source gives them in different places.

Columns and labels:
MCL1/Bim = MCL1/Bim (Homo sapiens (Human), UniProt Q07820); experiment: MCL1/Bim Binding AlphaLISA Assay; settings: recombinant human 6xHis-MCL1 (171-327), biotinylated Bim peptide (51-76)
Summary of the method: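 AlphaLISA with 0.0625 nM human 6×His-MCL1 (171-327) and 0.0625 nM biotinylated Bim (51-76) peptide in 20 mM Hepes pH 7.5, 150 mM NaCl, 0.002% Brij 35, 1 mM DTT, 0.01% BSA. Compound preincubated with MCL1 1 h, Bim added 2 h, then acceptor and donor beads 1 h each; % inhibition versus DMSO and no-protein/peptide controls.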

SKBR3 cells = experiment: SKBR3 Cell Viability Assay; format: cell-based; settings: CellTiter Glo, read-out: MCL1 CV SKBR3 EC50
Summary of the method: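 SKBR3 cells (6,000/well, McCoy's 5A + 10% FBS) were added onto pre-spotted serial compound dilutions and incubated 72 h at 37° C, 5% CO2. Viability was read by CellTiter-Glo luminescence, with % inhibition normalised to DMSO (negative) and 10 μM puromycin (positive).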

[1] = Homo sapiens, SK-BR-3, 72 hours

MCL1/Bim, sequence (Q07820 171-327): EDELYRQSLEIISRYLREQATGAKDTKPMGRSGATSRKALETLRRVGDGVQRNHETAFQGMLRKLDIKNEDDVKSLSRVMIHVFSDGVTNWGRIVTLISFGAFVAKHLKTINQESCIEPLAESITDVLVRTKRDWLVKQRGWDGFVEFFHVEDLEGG

Row | pIC50 (MCL1/Bim) | pEC50 (SKBR3 cells; 72 hours) | pEC50 (SKBR3 cells; [1]) | SMILES
1 | 10.16 | 7.00 |  | COc1nn(C)cc1C(=O)N[S@@]1(=O)=NC(=O)c2ccc3c(c2)N(C[C@@H]2CC[C@H]2[C@@H](OC)[C@H]2CN(C)[C@H]4CO[C@H](C(C)C1)[C@@H]24)C[C@@]1(CCCc2cc(Cl)ccc21)CO3 (stereo partly drawn) [Example 134]
2 | 10.24 |  | 7.04 | COc1nn(C)cc1C(=O)N[S@@]1(=O)=NC(=O)c2ccc3c(c2)N(C[C@@H]2CC[C@H]2[C@@H](OC)C[C@H]2CCO[C@@H]2[C@H](C)C1)C[C@@]1(CCCc2cc(Cl)ccc21)CO3 [Example 135]
3 | 10.02 |  | 7.17 | COc1nn(C)cc1C(=O)N[S@@]1(=O)=NC(=O)c2ccc3c(c2)N(C[C@@H]2CC[C@H]2[C@H]2OCC[C@@H]2CC[C@H](C)C1)C[C@@]1(CCCc2cc(Cl)ccc21)CO3 [Example 136]
4 | 10.15 |  | 6.70 | COc1nn(C)cc1C(=O)N[S@@]1(=O)=NC(=O)c2ccc3c(c2)N(C[C@@H]2CC[C@H]2[C@@H](OC)C[C@H]2CC(O)O[C@@H]2[C@H](C)C1)C[C@@]1(CCCc2cc(Cl)ccc21)CO3 (stereo partly drawn) [Example 139]
5 | 10.17 |  | 6.86 | COc1nn(C)cc1C(=O)N[S@@]1(=O)=NC(=O)c2ccc3c(c2)N(C[C@@H]2CC[C@H]2[C@@H](OC)C[C@H]2CC(=O)O[C@@H]2[C@H](C)C1)C[C@@]1(CCCc2cc(Cl)ccc21)CO3 [Example 140]
6 | 9.17 | 6.05 |  | C=CC[C@@H]1C[C@@H]2C[C@H](OC)[C@@H]3CC[C@H]3CN3C[C@@]4(CCCc5cc(Cl)ccc54)CCc4ccc(cc43)C(=O)N=[S@](=O)(NC(=O)c3cn(C)nc3OC)C[C@@H](C)[C@H]2O1 [Example 141]
7 | 9.72 | 6.75 |  | COc1nn(C)cc1C(=O)N[S@@]1(=O)=NC(=O)c2ccc3c(c2)N(C[C@@H]2CC[C@H]2[C@@H](OC)C[C@@H]2[C@H](OC[C@H]2C)[C@H](C)C1)C[C@@]1(CCCc2cc(Cl)ccc21)CO3 [Example 145]
8 | 9.40 | 6.27 |  | COc1nn(C)cc1C(=O)N[S@@]1(=O)=NC(=O)c2ccc3c(c2)N(C[C@@H]2CC[C@H]2[C@@H](OC)C[C@@H]2[C@H](OC[C@H]2C)[C@H](C)C1)C[C@@]1(CCCc2ccccc21)CO3 [Example 147]
9 | 9.37 | 5.77 |  | COc1nn(C)cc1C(=O)N[S@@]1(=O)=NC(=O)c2ccc3c(c2)N(C[C@@H]2CC[C@H]2[C@@H](OC)C[C@@H]2[C@H](OC[C@@H]2C)[C@H](C)C1)C[C@@]1(CCCc2ccccc21)CO3 [Example 148]
10 | 9.42 |  | 6.54 | COc1nn(C)cc1C(=O)N[S@@]1(=O)=NC(=O)c2ccc3c(c2)N(C[C@@H]2CC[C@H]2[C@@H](OC)/C=C/[C@@H]2OCC[C@@H]1[C@H]2C)C[C@@]1(CCCc2cc(Cl)ccc21)CC3 [Example 149]
11 | 10.25 |  | 6.38 | COc1nn(C)cc1C(=O)N[S@@]1(=O)=NC(=O)c2ccc3c(c2)N(C[C@@H]2CC[C@H]2[C@H]2OC(=O)C[C@@H]2CC[C@H](C)C1)C[C@@]1(CCCc2cc(Cl)ccc21)CC3 [Example 151]
12 | 10.57 |  | 7.29 | COc1nn(C)cc1C(=O)N[S@@]1(=O)=NC(=O)c2ccc3c(c2)N(C[C@@H]2CC[C@H]2[C@H]2O[C@H](CCN(C)C)C[C@@H]2CC[C@H](C)C1)C[C@@]1(CCCc2cc(Cl)ccc21)CO3 [Example 152]
13 | 9.72 | 6.00 |  | COc1nn(C)cc1C(=O)N[S@@]1(=O)=NC(=O)c2ccc3c(c2)N(C[C@@H]2CC[C@H]2/C=C/[C@@H]2OCCO[C@@H]2[C@H](C)C1)C[C@@]1(CCCc2cc(Cl)ccc21)CO3 [Example 153]
14 | 9.49 | 5.83 |  | COc1nn(C)cc1C(=O)N[S@@]1(=O)=NC(=O)c2ccc3c(c2)N(C[C@@H]2CC[C@H]2/C=C/[C@H]2OCCO[C@@H]2[C@H](C)C1)C[C@@]1(CCCc2cc(Cl)ccc21)CO3 [Example 154]
15 | 9.41 | 6.43 |  | COc1nn(C)cc1C(=O)N[S@@]1(=O)=NC(=O)c2ccc3c(c2)N(C[C@@H]2CC[C@H]2[C@@H]2/C=C/[C@H](OCCCC(=O)O2)[C@H](C)C1)C[C@@]1(CCCc2cc(Cl)ccc21)CO3 [Example 156]
16 | 9.44 | 6.64 |  | COc1nn(C)cc1C(=O)N[S@@]1(=O)=NC(=O)c2ccc3c(c2)N(C[C@@H]2CC[C@H]2[C@@H]2/C=C/[C@@H](OCCCC(=O)O2)[C@H](C)C1)C[C@@]1(CCCc2cc(Cl)ccc21)CO3 [Example 157]
17 | 8.41 | 5.71 |  | CCO/C1=C/C[C@H](OC)[C@@H]2CC[C@H]2CN2C[C@@]3(CCCc4cc(Cl)ccc43)COc3ccc(cc32)C(=O)N=[S@](=O)(NC(=O)c2cn(C)nc2OC)[C@H](C)[C@H]1C [Example 158]

Row | pIC50 (MCL1/Bim) | pEC50 (SKBR3 cells; 72 hours) | pEC50 (SKBR3 cells; [1]) | SMILES
18 | 9.16 | 6.42 |  | COc1nn(C)cc1C(=O)N[S@@]1(=O)=NC(=O)c2ccc3c(c2)N(C[C@@H]2CC[C@H]2[C@@H](OC)C[C@H]2CCO[C@@H]2[C@H](C)[C@H]1C)C[C@@]1(CCCc2cc(Cl)ccc21)CO3 [Example 159]
19 | 9.67 |  | 6.48 | COc1nn(C)cc1C(=O)N[S@@]1(=O)=NC(=O)c2ccc3c(c2)N(C[C@@H]2CC[C@H]2[C@@H](OC)C[C@H]2CCO[C@@H]2CC1)C[C@@]1(CCCc2cc(Cl)ccc21)CO3 [Example 160]
20 | 10.05 |  | 7.47 | COc1nn(C)cc1C(=O)N[S@@]1(=O)=NC(=O)c2ccc3c(c2F)N(C[C@@H]2CC[C@H]2[C@@H](OC)/C=C/C[C@H](C)C1)C[C@@]1(CCCc2cc(Cl)ccc21)CO3 [Example 161]
21 | 10.28 |  | 7.56 | COc1nn(C)cc1C(=O)N[S@@]1(=O)=NC(=O)c2ccc3c(c2F)N(C[C@@H]2CC[C@H]2C(OC)/C=C/[C@H](OC)[C@H](C)C1)C[C@@]1(CCCc2cc(Cl)ccc21)CO3 (stereo partly drawn) [Example 162]
22 | 9.98 |  | 7.06 | CCn1cc(C(=O)N[S@@]2(=O)=NC(=O)c3ccc4c(c3)N(C[C@@H]3CC[C@H]3[C@@H](OC)/C=C/C[C@H](C)C2)C[C@]2(CO4)C[C@@H]3C[C@@H]3c3cc(Cl)ccc32)cn1 [Example 164]
23 | 9.74 |  | 6.43 | CO[C@H]1/C=C/C[C@H](C)C[S@@](=O)(NC(=O)NCC2CC2)=NC(=O)c2ccc3c(c2)N(C[C@@H]2CC[C@H]21)C[C@]1(CO3)C[C@@H]2C[C@@H]2c2cc(Cl)ccc21 [Example 165]
24 | 9.77 |  | 6.72 | CO[C@H]1/C=C/C[C@H](C)C[S@@](=O)(NC(=O)NC2CC2)=NC(=O)c2ccc3c(c2)N(C[C@@H]2CC[C@H]21)C[C@]1(CO3)C[C@@H]2C[C@@H]2c2cc(Cl)ccc21 [Example 166]
25 | 10.00 |  | 7.33 | CO[C@H]1/C=C/C[C@H](C)C[S@@](=O)(NC(=O)c2cnn(C)c2)=NC(=O)c2ccc3c(c2)N(C[C@@H]2CC[C@H]21)C[C@]1(CO3)C[C@@H]2C[C@@H]2c2cc(Cl)ccc21 [Example 167]
26 | 9.63 |  | 7.03 | CO[C@H]1/C=C/C[C@H](C)C[S@@](=O)(NC(=O)c2cc3n(c2)CCOC3)=NC(=O)c2ccc3c(c2)N(C[C@@H]2CC[C@H]21)C[C@]1(CO3)C[C@@H]2C[C@@H]2c2cc(Cl)ccc21 [Example 168]
27 | 10.32 |  | 6.67 | CO[C@H]1/C=C/C[C@H](C)[C@@H](C)[S@@](=O)(NC(=O)COC2CCOCC2)=NC(=O)c2ccc3c(c2)N(C[C@@H]2CC[C@H]21)C[C@]1(CO3)C[C@@H]2C[C@@H]2c2cc(Cl)ccc21 [Example 169]
28 | 9.81 |  | 6.95 | CCn1cc(C(=O)N[S@@]2(=O)=NC(=O)c3ccc4c(c3)N(C[C@@H]3CC[C@H]3[C@@H](OC)/C=C/C[C@H](C)[C@H]2C)C[C@]2(CO4)C[C@@H]3C[C@@H]3c3cc(Cl)ccc32)cn1 [Example 170]
29 | 9.22 |  | 6.80 | CO[C@H]1/C=C/C[C@H](C)[C@@H](C)[S@@](=O)(NC(=O)c2cc3n(c2)CCOC3)=NC(=O)c2ccc3c(c2)N(C[C@@H]2CC[C@H]21)C[C@]1(CO3)C[C@@H]2C[C@@H]2c2cc(Cl)ccc21 [Example 172]
30 | 10.00 |  | 6.51 | CO[C@H]1/C=C/CCC[S@@](=O)(NC(=O)c2cnn(C)c2)=NC(=O)c2ccc3c(c2)N(C[C@@H]2CC[C@H]21)C[C@]1(CO3)C[C@@H]2C[C@@H]2c2cc(Cl)ccc21 [Example 173]
31 | 9.60 |  | 6.45 | CO[C@H]1/C=C/CCC[S@@](=O)(NC(=O)c2cc3n(c2)CCOC3)=NC(=O)c2ccc3c(c2)N(C[C@@H]2CC[C@H]21)C[C@]1(CO3)C[C@@H]2C[C@@H]2c2cc(Cl)ccc21 [Example 174]
32 | 9.62 |  | 6.20 | CO[C@H]1/C=C/CCC[S@@](=O)(NC(=O)NC2CC2)=NC(=O)c2ccc3c(c2)N(C[C@@H]2CC[C@H]21)C[C@]1(CO3)C[C@@H]2C[C@@H]2c2cc(Cl)ccc21 [Example 175]
33 | 10.22 |  | 7.14 | CO[C@H]1/C=C/C[C@H](C)C[S@@](=O)(NC(=O)c2cnn(C)c2)=NC(=O)c2ccc3c(c2)N(C[C@@H]2CC[C@H]21)C[C@]1(CO3)SCCc2cc(Cl)ccc21 [Example 176]
34 | 10.30 |  | 7.59 | CCn1cc(C(=O)N[S@@]2(=O)=NC(=O)c3ccc4c(c3)N(C[C@@H]3CC[C@H]3[C@@H](OC)/C=C/C[C@H](C)C2)C[C@]2(CO4)SCCc3cc(Cl)ccc32)cn1 [Example 178]

Row | SMILES | pIC50 (MCL1/Bim) | pEC50 (SKBR3 cells; 72 hours) | pEC50 (SKBR3 cells; [1])
35 | COc1nn(C)cc1C(=O)N[S@@]1(=O)=NC(=O)c2ccc3c(c2)N(C[C@@H]2CC[C@H]2[C@@H](OC)C[C@H]2C[C@H](CCN(C)C)O[C@@H]2[C@H](C)C1)C[C@@]1(CCCc2cc(Cl)ccc21)CO3 [Example 142] | 10.22 | 6.98 | 
36 | COc1nn(C)cc1C(=O)N[S@@]1(=O)=NC(=O)c2ccc3c(c2)N(C[C@@H]2CC[C@H]2[C@@H](OC)CC2CC(CCN(C)C)OC2[C@H](C)C1)C[C@@]1(CCCc2cc(Cl)ccc21)CO3 (stereo partly drawn) [Example 143] | 10.43 | 7.43 | 
